Test [1] has as its system Jurkat cells undergoing apoptosis induced by anti-Fas Ab. In words: Selective binding to apoptotic Jurkat cells; flow-cytometric (FACS) analysis. The test is classed as cell-based, human. The following applies: 20 minutes. The procedure: Cultured Jurkat cells (human adult T cell leukemia cells) were grown in suspension in RPMI medium (Beit-Haemek, Israel), supplemented with 10% of fetal calf serum (FCS), 4 mM of L-glutamine, 1 mM of sodium pyruvate, […] and antibiotics (100 units/ml penicillin; 100 μg/ml streptomycin and 12.5 units/ml of nystatin). Prior to induction of apoptosis, medium was replaced with HBS buffer (10 mM HEPES; 140 mM NaCl, 1 mM CaCl). Apoptosis was then triggered by treatment with anti-Fas Ab (0.1 μg/ml; 3 hrs). As a result, a marked percentage of the cells became apoptotic, and is regarded as newly formed early apoptotic cells. Non-treated cells served as control. Both control cells and apoptotic cells were then incubated for 20 minutes with 100 μM of NST705. […] The analysis shown in FIG. 1 describes the uptake of NST705 compound into the population of apoptotic cells in control and anti-fas treated cultures.
In the dot plot shown in FIG. 1A and FIG. 1B, the left lower quadrant represents the healthy, non-stained fraction of cells. The right lower quadrant represents the newly formed population of cells in the early stages of apoptosis. These cells still maintain membrane integrity and thus exclude PI. Cells binding both NST705 and PI, i.e., cells in the late stages of apoptosis are represented in the right upper quadrant.
(§1) Cultured Jurkat cells (human adult T cell leukemia cells) were grown in suspension in RPMI medium (Beit-Haemek, Israel), supplemented with 10% of fetal calf serum (FCS), 2 mM of L-glutamine, 1 mM of sodium pyruvate, […] and antibiotics (100 units/ml penicillin; 100 μg/ml streptomycin and 12.5 units/ml of nystatin). Prior to induction of apoptosis, medium was replaced with HBS buffer (10 mM HEPES; 140 mM NaCl, 1 mM CaCl). Apoptosis was then triggered by treatment with anti-Fas Ab (0.1 μg/ml; 3 hrs). As a result, a marked percentage of the cells became apoptotic. Non-treated cells served as control. Both control cells and apoptotic cells were then incubated for 20 minutes with 100 μM of NST703. Subsequently, cells were co-stained with propidium iodide (P). Binding of NST703 to the control and apoptotic cells was determined by flow cytometric (FACS) analysis using Becton-Dickinson cell sorter and CellQuest software (excitation was at 356 nm and emission was measured at 530 nm).
In the dot plot shown in FIG. 2A and 2B, the left lower quadrant represents the healthy, non-stained fraction of cells. The right lower quadrant represents the newly formed population of cells in the early stages of apoptosis. These cells still maintain membrane integrity and thus exclude PI. Cells binding both NST703 and PI, i.e., cells in the late stages of apoptosis are represented in the right upper quadrant.
as §1, with “penicilin;” for “penicillin;”, “DC.” for “NST703.”, “(PI).” for “(P).”, “DC” for “NST703”
FIG. 4A and FIG. 4B are each a representative FACS dot plot, showing that activation of apoptosis leads to a marked uptake of DC by cells in the early stages of apoptosis (FIG. 4B), as compared to control cells (FIG. 4A). […]

Test [2] concerns apoptotic cells in B16-F10 murine melanoma tumor. In words: Targeting in-vivo to apoptotic cells in tumor, murine melanoma; fluorescent microscopy. The arrangement: species or system mice. To be noted: 2 mg/mouse intravenously, 2 hours. Here is the method:
Tumors, and especially aggressive malignancies such as melanoma are characterized, in addition to the abnormal tissue proliferation, also by marked apoptosis of tumor cells. The performance of DC in selective targeting of these apoptotic cells within the tumor was therefore examined Mice (c57/black; 8 weeks old male mice) were injected subcutaneously bilaterally, in the flank, with murine melanoma-derived B16-F10 cells (ATCC CRL-6475; 10^5 cells/mice in a volume of 100 μl). Prior to injection, the cell line was maintained in culture in Dulbecco's modified Eagle's medium (DMEM), supplemented with 4 mM of L-glutamine; 100 units/ml of penicillin; 100 μg/ml of streptomycin; 12.5 units/ml of nystatin and 10% of fetal calf serum (FCS). Tumors were allowed to grow for 14 days, by which they reached a diameter of 5-7 mm.
The DC compound (2 mg/mouse in NaPpi buffer, pH. 7.40) was injected intravenously. Two hours later, the mice were scarified and the tumors, as well as other organs were taken, and immediately frozen in liquid nitrogen. Frozen sections were then prepared from each of the organs. Uptake of DC by the tumors or other organs was assessed by fluorescent microscopy.
The performance of NST730 in selective targeting to apoptotic cells within a tumor examined as described in Example 7. Mice (c57/black; 8 weeks old male mice) were injected subcutaneously bilaterally, in the flank, with murine melanoma-derived B16-F10 cells (ATCC CRL-6475; 10^5 cells/mice in a volume of 100 μl). Tumors were allowed to grow for 14 days, by which they reached a diameter of 5-7 mm.
The NST730 compound (2 mg/mouse in NaPpi buffer, pH. 7.40) was injected intravenously. Two hours later, the mice were scarified and the tumors, as well as other organs were taken, and immediately frozen in liquid nitrogen. Frozen sections were then prepared from each of the organs. Uptake of NST730 by the tumors or by other organs was assessed by fluorescent microscopy.

The test system of test [3] is neuronal cell death following MCA occlusion. In words: Detection of neuronal cell death following middle cerebral artery (MCA) occlusion. In kind it is in vivo. To be noted: Balb/C mice; 70 mg/kg intravenously 22 hours after MCA cauterization, 2 hours. The procedure: Cerebral ischemia was induced in Balb/C mice (10-12 weeks) by cauterization of the middle cerebral artery. Mice were anesthetized, and the temporal bone was exposed. Scraping off the bone up to a minimal hole allowed exposure of the artery subjecting it to cauterization. 22 hours later, NST732 (70 mg/kg) was injected intravenously. Two hours later (at 24 h from induction of the injury), mice were anesthetized and sacrificed, and brains were removed into liquid nitrogen for histopathological analysis of the frozen sections. Four μm thick sections were prepared for fluorescent microscopic analysis to follow the cells stained positively with NST732.
Cerebral ischemia was induced in Balb/C mice (10-12 weeks) by cauterization of the middle cerebral artery. Mice were anesthetized, and the temporal bone was exposed. Scraping off the bone up to a minimal hole allowed exposure of the artery subjecting it to cauterization, 22 hours later, NST730 (70 mg/kg) was injected intravenously. Two hours later (at 24 h from induction of the injury), mice were anesthetized and sacrificed, and brains were removed into liquid nitrogen for histopathological analysis of the frozen sections, as described in Example 11.

Test [4] concerns murine lymphoma cells undergoing cell death induced by irradiation. In words: Detection of cell death induced by irradiation in vivo; murine lymphoma. The following applies: irradiated DBA mice (3 fractions of 6 Gray); 70 mg/kg intravenously, 2 hours. The procedure: DBA mice (5-6 weeks old males, Jackson laboratories) were injected subcutaneous with 10^6 lyS cells in 50 μl saline and were examined daily for tumor formation. At days 8, 9 and 10 mice were placed in a Perspex box and irradiated with 6MV x-rays apparatus (Linac) in fractions of 6 Gray each. Each mouse received a dose of about 1.0 centiGray per monitor unit. At day 13 (72 hours following the last irradiation) mice were injected intravenously with NST 732 (70 mg/kg, dissolved in Tris base containing 25% cremophore RH410, pH=9). After 2 hours, tumors were excised, frozen in liquid nitrogen and submitted for histopathological assessment.

Test [5] relates to chemotherapy-induced apoptotic cells of lymphoma tumors. In words: In-vivo targeting to chemotherapy-induced apoptotic cells of lymphoma tumors; fluorescent microscopy. To be noted: DBA/2 mice, Taxol 20 mg/Kg; 1.4 mg/mouse injected 24 h later, 2 hours. Here is the method: Lymphoma tumors were induced in 8 weeks old male DBA/2 mice (Harlan laboratories, UK) by subcutaneous injection of lymphoma cells. The cells, from a chemically-induced LY-R clone were obtained from ATCC(CRL-1722), and maintained by subsequent passages in mice. For induction of tumors, 5×10^5 cells in a volume of 100 μl were injected into the thigh region in mice. […] Twenty-four hours later, NST705 was injected systemically at a dose of 1.4 mg/mouse. Two hours later, mice were sacrificed and tumors were frozen in liquid nitrogen. Cryosections were then prepared and serial slides were subjected to either hematoxylin & eosin (H&E) staining or fluorescent microscopy evaluation (excitation wavelength of 360 nm, emission at 530 nm), using an Olympus fluorescent microscope (model IX70).

In the next test the test system is apoptotic HeLa S3 cells. In words: Selective binding to apoptotic HeLa cells in vitro; flow-cytometric analysis. The test is classed as cell-based. The following applies: culture aged 96 hours; FACS. The procedure: HeLa S3 cells (ATCC CCL-2.2) were grown in Dulbecco's modified Eagle's medium (DMEM), supplemented with 2 mM of L-glutamine; 100 units/ml of penicillin; 100 μg/ml of streptomycin; 12.5 units/ml of nystatin and 10% of fetal calf serum (FCS). Cells were seeded at a density of 5×10^6 cells/plate, on a […] culture plates, in a volume of 10 ml, and were allowed to age by incubating the culture for 96 hours without exchange of the growth medium. As a result, a marked percentage of the cells became apoptotic. Cells were harvested using a cell scraper, separated to single cells by passage through a syringe with a 18 G needle, and re-suspended at a density of 10^6 cells/ml in PBS buffer at pH=7.4. […] The analysis shown in FIG. 10 describes the uptake of NST601 compound into the population of apoptotic cells.

The mark [6] stands for this setting: apoptotic cells (anti-Fas Ab 0.1 μg/ml, 3 hrs), 100 μM compound.
[7] abbreviates: non-treated control cells, 100 μM compound.

This is an account of results in patent US7365223B2, “Method for selective targeting of apoptotic cells and small molecule ligands used thereof” (NST NeuroSurvival Technologies Ltd, priority 2003, dated 2008).

`CCCCN(C)c1cccc2c(S(=O)(=O)NCC(=O)O)cccc12` [NST703, (5-Butylmethylamino-naphtalene-1-sulfonyl)-glycine]: the “percent of identified early apoptotic events within the population (cells binding compound, excluding PI)” value (shortened to “percent”) is 75.6% in test [1] (setting [6]) and 3.27% in test [1] (setting [7]).

On to `CN(C)c1cccc2c(S(=O)(=O)N[C@@H](CS)C(=O)O)cccc12` [DC, dansylcysteine], for which, in test [2] (small intestine tissue of the same animal), the “binding to normal, viable tissue” value is “lack of binding”. Moreover, the “binding to tumor cells undergoing apoptosis” value in test [2] is listed as “Extensive binding”. Besides, the “staining of viable tumor cells” value in test [2] is reported as “remain unstained”. Besides, the “percent” value in test [1] (setting [6]) was found to be 76%; in test [1] (setting [7]) it was 2.3%.

Consider `CCC(CF)(NS(=O)(=O)c1cccc2c(N(C)C)cccc12)C(=O)O` (stereo not drawn) [NST732], for which, in test [3], the “binding to cells in the infarcted (damaged) area” value is recorded as “extensive binding” and the “binding to cells outside the infarcted area” value was “did not manifest significant binding”. In addition, the “binding to tumor cells undergoing apoptosis” value in test [4] is “extensive binding”.

With `CCCCN(CCCC)c1cccc2c(S(=O)(=O)N[C@@H](CC(=O)O)C(=O)O)cccc12` [NST705, (5-dibutylamino-naphthalene-1-sulfonyl)-L-aspartic acid], the “uptake by tumor cells undergoing cell death” value in test [5] is reported as “marked uptake”. Besides, the “uptake by viable, non-apoptotic tumor cells” value in test [5] is listed as “not observed”. The “percent” value in test [1] (setting [6]) is reported as 70.8%; in test [1] (setting [7]), 3%.

As to `CN(C)c1cccc2c(S(=O)(=O)O)cccc12` [DA, dansylic acid], the “percent” value in test [1] (apoptotic cells (anti-Fas Ab 0.1 μg/ml, 3 hrs), 250 μM compound) amounted to 77%; in test [1] (non-treated control cells, 250 μM compound) it was 4.2%.

Take `CN(C)c1cccc2c(S(=O)(=O)NC(C)(CF)C(=O)O)cccc12` (stereo not drawn) [NST730]: the “binding to other non-target tissues” value in test [2] (colon, kidney, spleen and heart) is “lack of significant binding”. Moreover, the “binding to normal, viable tissue” value in test [2] (muscle tissue of the same animal) was “lack of binding”. Further, in test [2], the “binding to tumor cells undergoing apoptosis” value is reported as “Extensive binding” and the “staining of viable tumor cells” value was “remain unstained”. Also, in test [3], the “binding to cells in the infarcted (damaged) area” value is “extensive binding” and the “binding to cells outside the infarcted area” value is “did not manifest significant binding”.

With `CCCCN(C)c1cccc2c(S(=O)(=O)O)cccc12` [NST601, 5-Butylmethylamino-naphtalene-1-sulfonic acid], in the test with apoptotic HeLa S3 cells, the “binding to apoptotic cells” value is reported as “selective binding” and the “staining of cells that do not undergo a process of cell death” value is listed as “remained non-stained”.
